How the values were obtained:
heteromeric TRPC4:TRPC1 = target: T1, heteromeric TRPC4:TRPC1 (Homo sapiens, UniProt Q9UBN4); assay: Whole-cell recordings, HEK293 co-expressing TRPC4 and TRPC1; type: cell-based; details: 30 nM
T1 construct: expressed in transfected cells; host or cells: HEK293, transiently transfected
Excerpt: Müller, Niemeyer, et al., Schaefer & Thorn-Seshold 2025: Ideal Efficacy Photoswitching of TRPC4/5 in Tissue 3.3 Activation of heteromeric TRPC4:TRPC1 and TRPC5:TRPC1
Supplementary Figure 15: Photoswitching of ionic currents through heteromeric TRPC4:TRPC1 and TRPC5:TRPC1 channel complexes. Whole cell recordings from HEK293 cells that were transiently transfected to express the indicated TRPC isoforms were obtained in the whole cell mode with a voltage and photoswitching paradigm as illustrated in (A). (B-D) Superimposed recordings of 20 consecutive sweeps are shown for cells that ony express TRPC4 or TRPC5 (left), and for cells that co-express the respective TRPC channel along with TRPC1 (right). Note the characteristic change of the current-voltage relationship with smaller inward currents and stronger outward rectification in cells that co-express TRPC1. […]
or 10 nM (all other panels). The data shown are representative for 4-12 patched cells, each.
Currents through heteromeric complexes that are composed of TRPC4:TRPC1 or TRPC5:TRPC1 subunits can be unequivocally recognized on the basis of their unique biophysical properties with smaller unitary and global inward current amplitudes and a marked outward rectification.44 We show […]
also the heteromeric complexes TRPC5:TRPC1 and TRPC4:TRPC1 that are formed upon co-expression with TRPC1 (Supplementary Fig. 15). […]

PSS E/Z ratios by HPLC = type: physicochemical; details: for PSS % E at 330 nm / PSS % E at 340 nm / PSS % E at 350 nm / PSS % E at 360 nm / PSS % E at 370 nm / PSS % E at 380 nm / PSS % E at 390 nm / PSS % E at 400 nm / PSS % E at 410 nm / PSS % E at 420 nm / PSS % E at 430 nm / PSS % E at 440 nm / PSS % E at 450 nm / PSS % E at 460 nm / PSS % E at 470 nm / PSS % E at 480 nm / PSS % E at 490 nm / PSS % E at 500 nm / PSS % Z at 330 nm / PSS % Z at 340 nm / PSS % Z at 350 nm / PSS % Z at 360 nm / PSS % Z at 370 nm / PSS % Z at 380 nm / PSS % Z at 390 nm / PSS % Z at 400 nm / PSS % Z at 410 nm / PSS % Z at 420 nm / PSS % Z at 430 nm / PSS % Z at 440 nm / PSS % Z at 450 nm / PSS % Z at 460 nm / PSS % Z at 470 nm / PSS % Z at 480 nm / PSS % Z at 490 nm / PSS % Z at 500 nm: monochromator, HPLC integration (296 nm)
Description: UV-VIS. UV-Vis spectra were recorded on an Agilent Cary 60 UV-Vis spectrophotometer using 1 cm quartz or PMMA cuvettes. All photoisomerisations were performed at room temperature in non-degassed solvents unless stated differently. Samples were irradiated with either a CoolLED pE-4000 or Polycon V monochromator (TILL Photonics, Gräfelfing, Germany) by shining from the […]
differently, all measurements were performed at a default concentration of 20 μM. Dark state refers […]
methods followed standard practices39–41. All-E and PSS spectra are shown in Supplementary […]
HPLC for PSS E/Z ratios. Analytical HPLC was performed on an Agilent 1200 SL with (a) a binary pump able to deliver H2O:MeCN eluent mixtures containing 0.1% formic acid at a 1 mL/min flow rate [for PSS measurements of final compounds, only MeCN was used], (b) YMC Carotenoid 5 µm, […]
(100 µM, MeCN) in HPLC vials were irradiated for at least 6 min from top with the monochromator […]
separate well); PSS ratio was then determined by integrating the signal at an isosbestic region

T1 sequence (Q9UBN4 whole entry): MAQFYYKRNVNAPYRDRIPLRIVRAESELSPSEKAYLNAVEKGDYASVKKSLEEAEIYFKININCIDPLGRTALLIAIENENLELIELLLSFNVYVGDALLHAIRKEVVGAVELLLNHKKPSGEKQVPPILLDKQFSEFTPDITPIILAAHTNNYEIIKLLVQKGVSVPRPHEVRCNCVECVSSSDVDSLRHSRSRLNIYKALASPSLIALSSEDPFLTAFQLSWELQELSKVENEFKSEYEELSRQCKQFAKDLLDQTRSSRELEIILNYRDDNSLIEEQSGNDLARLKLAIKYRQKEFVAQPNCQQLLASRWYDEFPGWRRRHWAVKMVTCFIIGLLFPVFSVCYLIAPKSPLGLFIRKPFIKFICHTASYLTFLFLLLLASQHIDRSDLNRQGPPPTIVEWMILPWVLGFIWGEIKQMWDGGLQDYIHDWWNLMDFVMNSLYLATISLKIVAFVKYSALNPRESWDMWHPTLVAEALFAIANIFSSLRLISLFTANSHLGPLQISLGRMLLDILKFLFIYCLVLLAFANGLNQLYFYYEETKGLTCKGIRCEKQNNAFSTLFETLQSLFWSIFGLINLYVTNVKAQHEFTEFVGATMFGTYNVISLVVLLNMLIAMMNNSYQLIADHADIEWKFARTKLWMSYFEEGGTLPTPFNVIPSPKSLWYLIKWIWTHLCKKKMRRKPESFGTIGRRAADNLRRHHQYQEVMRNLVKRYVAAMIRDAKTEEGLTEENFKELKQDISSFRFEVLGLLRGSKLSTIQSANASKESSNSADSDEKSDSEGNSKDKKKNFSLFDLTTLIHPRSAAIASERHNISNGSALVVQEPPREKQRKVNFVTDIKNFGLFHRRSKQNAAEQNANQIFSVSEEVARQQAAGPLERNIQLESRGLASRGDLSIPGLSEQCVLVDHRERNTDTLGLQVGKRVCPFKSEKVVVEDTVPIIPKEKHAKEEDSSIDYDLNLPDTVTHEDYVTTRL
T1 sequence (P48995 whole entry partner): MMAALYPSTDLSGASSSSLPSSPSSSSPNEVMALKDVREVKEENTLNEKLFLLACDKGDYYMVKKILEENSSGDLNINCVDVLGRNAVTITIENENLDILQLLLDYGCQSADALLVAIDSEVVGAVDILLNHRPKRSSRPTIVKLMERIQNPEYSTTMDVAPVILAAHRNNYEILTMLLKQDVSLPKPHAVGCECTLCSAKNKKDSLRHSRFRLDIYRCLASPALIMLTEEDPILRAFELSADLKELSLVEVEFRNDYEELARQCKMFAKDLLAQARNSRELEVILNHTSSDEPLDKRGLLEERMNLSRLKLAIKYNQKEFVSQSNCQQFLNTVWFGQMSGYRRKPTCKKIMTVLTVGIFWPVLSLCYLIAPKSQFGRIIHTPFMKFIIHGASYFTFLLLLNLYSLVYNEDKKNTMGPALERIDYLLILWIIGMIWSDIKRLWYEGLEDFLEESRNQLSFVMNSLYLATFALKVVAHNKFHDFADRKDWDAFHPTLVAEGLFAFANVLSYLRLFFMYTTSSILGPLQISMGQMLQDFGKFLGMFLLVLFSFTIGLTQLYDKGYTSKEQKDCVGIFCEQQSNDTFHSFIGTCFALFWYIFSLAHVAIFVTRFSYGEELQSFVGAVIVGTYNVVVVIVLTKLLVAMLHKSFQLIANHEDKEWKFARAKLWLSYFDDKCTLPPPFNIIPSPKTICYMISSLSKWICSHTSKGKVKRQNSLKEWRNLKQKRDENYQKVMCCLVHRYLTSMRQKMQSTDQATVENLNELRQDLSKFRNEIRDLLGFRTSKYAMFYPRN

Chromocontrol over heteromeric TRPC4:TRPC1 currents versus homomeric channels (heteromeric TRPC4:TRPC1)	PSS %E around 410 nm (PSS E/Z ratios by HPLC)	PSS %Z around 360 nm (PSS E/Z ratios by HPLC) [%]	PSS % E at 330 nm (PSS E/Z ratios by HPLC) [%]	PSS % E at 340 nm (PSS E/Z ratios by HPLC) [%]	PSS % E at 350 nm (PSS E/Z ratios by HPLC) [%]	PSS % E at 360 nm (PSS E/Z ratios by HPLC) [%]	PSS % E at 370 nm (PSS E/Z ratios by HPLC) [%]	PSS % E at 380 nm (PSS E/Z ratios by HPLC) [%]	PSS % E at 390 nm (PSS E/Z ratios by HPLC) [%]	PSS % E at 400 nm (PSS E/Z ratios by HPLC) [%]	PSS % E at 410 nm (PSS E/Z ratios by HPLC) [%]	PSS % E at 420 nm (PSS E/Z ratios by HPLC) [%]	PSS % E at 430 nm (PSS E/Z ratios by HPLC) [%]	PSS % E at 440 nm (PSS E/Z ratios by HPLC) [%]	PSS % E at 450 nm (PSS E/Z ratios by HPLC) [%]	PSS % E at 460 nm (PSS E/Z ratios by HPLC) [%]	PSS % E at 470 nm (PSS E/Z ratios by HPLC) [%]	PSS % E at 480 nm (PSS E/Z ratios by HPLC) [%]	PSS % E at 490 nm (PSS E/Z ratios by HPLC) [%]	SMILES	other results
comparable chromocontrol	~ 82%	95	21	6	4	4	7	23	52	74	81	80	79	76	72	68	63	59	55	Cn1c(=O)n(CCCO)c(=O)c2c1nc(Oc1ccc(N=Nc3ccccc3)c(Cl)c1)n2Cc1ccc(Cl)cc1 [AzHC]	PSS % E at 500 nm (PSS E/Z ratios by HPLC): 52%; PSS % Z at 330 nm (PSS E/Z ratios by HPLC): 79%; PSS % Z at 340 nm (PSS E/Z ratios by HPLC): 94%; PSS % Z at 350 nm (PSS E/Z ratios by HPLC): 96%; PSS % Z at 360 nm (PSS E/Z ratios by HPLC): 96%; PSS % Z at 370 nm (PSS E/Z ratios by HPLC): 93%; PSS % Z at 380 nm (PSS E/Z ratios by HPLC): 78%; PSS % Z at 390 nm (PSS E/Z ratios by HPLC): 48%; PSS % Z at 400 nm (PSS E/Z ratios by HPLC): 26%; PSS % Z at 410 nm (PSS E/Z ratios by HPLC): 19%; PSS % Z at 420 nm (PSS E/Z ratios by HPLC): 20%; PSS % Z at 430 nm (PSS E/Z ratios by HPLC): 21%; PSS % Z at 440 nm (PSS E/Z ratios by HPLC): 24%; PSS % Z at 450 nm (PSS E/Z ratios by HPLC): 28%; PSS % Z at 460 nm (PSS E/Z ratios by HPLC): 32%; PSS % Z at 470 nm (PSS E/Z ratios by HPLC): 37%; PSS % Z at 480 nm (PSS E/Z ratios by HPLC): 41%; PSS % Z at 490 nm (PSS E/Z ratios by HPLC): 45%; PSS % Z at 500 nm (PSS E/Z ratios by HPLC): 48%
comparable chromocontrol	~ 82%	95	16	8	5	5	11	23	38	79	84	84	82	80	77	74	70	67	64	Cn1c(=O)n(CCCO)c(=O)c2c1nc(Oc1ccc(N=Nc3ccccc3)c(OC(F)(F)F)c1)n2Cc1ccc(Cl)cc1 [AzPico]	PSS % E at 500 nm (PSS E/Z ratios by HPLC): 61%; PSS % Z at 330 nm (PSS E/Z ratios by HPLC): 84%; PSS % Z at 340 nm (PSS E/Z ratios by HPLC): 92%; PSS % Z at 350 nm (PSS E/Z ratios by HPLC): 95%; PSS % Z at 360 nm (PSS E/Z ratios by HPLC): 95%; PSS % Z at 370 nm (PSS E/Z ratios by HPLC): 89%; PSS % Z at 380 nm (PSS E/Z ratios by HPLC): 77%; PSS % Z at 390 nm (PSS E/Z ratios by HPLC): 62%; PSS % Z at 400 nm (PSS E/Z ratios by HPLC): 21%; PSS % Z at 410 nm (PSS E/Z ratios by HPLC): 16%; PSS % Z at 420 nm (PSS E/Z ratios by HPLC): 16%; PSS % Z at 430 nm (PSS E/Z ratios by HPLC): 18%; PSS % Z at 440 nm (PSS E/Z ratios by HPLC): 20%; PSS % Z at 450 nm (PSS E/Z ratios by HPLC): 23%; PSS % Z at 460 nm (PSS E/Z ratios by HPLC): 27%; PSS % Z at 470 nm (PSS E/Z ratios by HPLC): 30%; PSS % Z at 480 nm (PSS E/Z ratios by HPLC): 33%; PSS % Z at 490 nm (PSS E/Z ratios by HPLC): 36%; PSS % Z at 500 nm (PSS E/Z ratios by HPLC): 39%
